Assays:
[1] = tested on: ASIC1a; set-up: method as in PMID 25196733; settings: cited from earlier work
[2] = tested on: ASIC currents; set-up: method as in PMID 16061325; settings: read-out: IC50, non-selective inhibition of ASIC currents; cited from earlier work
[3] = tested on: all of the functional isoforms of ASICs; set-up: method as in PMID 9261094; settings: read-out: IC50, inhibition of ASICs; cited from earlier work
[4] = biological target: T1, rat ASIC1a (Rattus norvegicus, UniProt P55926); test: Two-electrode voltage clamp on X. laevis oocytes expressing rat ASIC1a; format: cell-based; settings: for IC50: X. laevis oocytes, pH drop 7.4 to 5.5, holding potential −50 mV, mean ± SEM of 5–6, read-out: IC50, inhibition of ASIC1a current; for maximal current block, ASIC1a: effect reversible
T1 construct: expressed in transfected cells; host or cells: Xenopus laevis oocytes (cRNA injection)
T1 sequence (P55926 1-526): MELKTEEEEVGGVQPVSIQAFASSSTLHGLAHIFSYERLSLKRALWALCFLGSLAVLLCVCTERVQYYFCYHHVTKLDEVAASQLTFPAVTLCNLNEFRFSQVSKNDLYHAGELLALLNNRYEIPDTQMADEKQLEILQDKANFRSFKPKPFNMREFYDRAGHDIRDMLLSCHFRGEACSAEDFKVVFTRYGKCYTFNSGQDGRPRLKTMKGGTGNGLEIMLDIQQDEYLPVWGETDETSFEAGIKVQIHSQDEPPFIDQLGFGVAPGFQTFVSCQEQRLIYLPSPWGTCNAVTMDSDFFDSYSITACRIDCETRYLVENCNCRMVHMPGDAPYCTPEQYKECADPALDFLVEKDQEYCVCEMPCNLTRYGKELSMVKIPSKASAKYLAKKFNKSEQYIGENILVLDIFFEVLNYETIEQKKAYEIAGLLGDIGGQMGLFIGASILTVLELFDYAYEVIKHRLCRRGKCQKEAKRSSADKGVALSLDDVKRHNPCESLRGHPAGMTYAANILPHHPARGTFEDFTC
Description: (§1) Testing the activity of synthetic sevanol (s706) (as a mixture of 75% of sevanol and 25% of isosevanol) and its analogues (s590, EA, and s788) was carried out by the standard two-electrode voltage clamp method on X. laevis oocytes expressing rat ASIC1a and ASIC3 channels. The activation of the channels was performed using a rapid change of the solution from conditioning pH 7.4 to a solution with pH 5.5. Sevanol and its two analogues, s590 and EA, inhibited ASIC1a and ASIC3 channels.
(§2) Oocytes were harvested from female frogs anaesthetized with tricaine methane sulfonate (MS222) (0.17% solution), and the surgery was performed in an ice bath to avoid heavy bleeding. Defolliculated stage IV and V cells were injected with 2.5 and 10 ng cRNA, synthesized from PCi plasmids containing the rat ASIC1a and rat ASIC3 isoforms, respectively, using the Nanoliter 2000 microinjection system (World Precision Instruments, USA). The injected oocytes were kept for 2–3 days at 17 to 19 °C, and then for up to 5 days at 15 °C in a ND96 medium containing (in mM) 96 NaCl, 2 KCl, 1.8 CaCl2, 1 MgCl2, and 5 HEPES titrated to pH 7.4 with NaOH supplemented with gentamycin (50 μg/mL). Two-electrode voltage clamp recordings were performed at a holding potential of −50 mV using a GeneClamp 500 amplifier (Axon Instruments), and the data were filtered at 20 Hz and digitized at 100 Hz by an AD converter L780 (LCard, Russia). Microelectrodes were filled with 3 M KCl. The conditioning bath solution was ND96; the pH was adjusted to 7.4. The activating test solution was constructed based on the ND-96 buffer, in which 5 mM HEPES was replaced with 10 mM MES and pH was adjusted to 5.5. A computer-controlled valve system was used to achieve a rapid solution exchange in the recording chamber. A four parameter logistic equation was used for the curve-fitting analysis: F(x) = ((a1 − a2)/(1 + (x/x0)n)) + a2, where x is the concentration of the compound; F(x) is the response value at a given concentration of the compound; a1 is the control response value (fixed at 100%); x0 is the IC50 value; n is the Hill coefficient (slope factor); and a2 is the response value at the maximal inhibition (% of control).
(§3) Figure 2 The inhibitory activity of sevanol (s706) and its analogues. Currents were elicited by a drop from pH 7.4 to 5.5; the holding potential was −50 mV; (A,C) are dose–response curves for s706, s590 and EA inhibitory effects on ASIC1a and ASIC3 channels, respectively; (B,D) are reciprocal IC50 values for s706, s590 and EA inhibitory effects on ASIC1a and ASIC3 channels, respectively. The data were fitted by the logistic equation. Each point is the mean ± SEM of 5–6 measurements. * p < 0.05, ** p < 0.005.

[5] = biological target: T2, rat ASIC3 (Rattus norvegicus, UniProt O35240); test: Two-electrode voltage clamp on X. laevis oocytes expressing rat ASIC3; format: cell-based; settings: for IC50: X. laevis oocytes, pH drop 7.4 to 5.5, holding potential −50 mV, mean ± SEM of 5–6, read-out: IC50, inhibition of ASIC3 current; for maximal current block, ASIC3: effect reversible
T2 construct: expressed in transfected cells; host or cells: Xenopus laevis oocytes (cRNA injection)
T2 sequence (O35240 1-533): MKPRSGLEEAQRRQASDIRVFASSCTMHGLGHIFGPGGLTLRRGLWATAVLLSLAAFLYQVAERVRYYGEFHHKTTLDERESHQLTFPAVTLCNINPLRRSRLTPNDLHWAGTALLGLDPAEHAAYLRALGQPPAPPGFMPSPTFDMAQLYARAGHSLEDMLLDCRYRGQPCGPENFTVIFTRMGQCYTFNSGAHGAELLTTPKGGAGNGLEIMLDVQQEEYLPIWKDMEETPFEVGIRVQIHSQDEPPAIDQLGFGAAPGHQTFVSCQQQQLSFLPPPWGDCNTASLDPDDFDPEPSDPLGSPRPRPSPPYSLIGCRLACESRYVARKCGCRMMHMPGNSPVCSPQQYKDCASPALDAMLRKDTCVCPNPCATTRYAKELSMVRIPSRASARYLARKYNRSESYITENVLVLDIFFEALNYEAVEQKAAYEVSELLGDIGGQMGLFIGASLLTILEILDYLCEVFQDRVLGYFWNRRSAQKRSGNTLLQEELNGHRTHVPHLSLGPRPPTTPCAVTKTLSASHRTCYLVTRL
Description: as §1, §2, §3

[6] = tested on: ASIC3-containing channels; set-up: method as in PMID 11588175; settings: read-out: IC50, inhibition of ASIC3-containing channels; cited from earlier work
[7] = tested on: ASIC1a-containing channels; set-up: method as in PMID 11588175; settings: read-out: IC50, inhibition of ASIC1a-containing channels; cited from earlier work

For `Nc1c2ccccc2nc2ccccc12` [9-aminoacridine], the “inhibition of ASIC1a” value [1] is given as “inhibit ASIC1a in submillimolar concentrations”.
In the case of `CC(C)C1c2cc(C3CC3c3ccc4cc(C(=N)N)ccc4c3)ccc2CCN1C` (stereo not shown) [A-317567], the IC50 [2] is listed as 2 to 30 µM.
For `N=C(N)NC(=O)c1nc(Cl)c(N)nc1N` [Amiloride], the IC50 [3] is given as 10 to 60 µM.
With `O=C(O)C1=Cc2cc(O)c(O)cc2[C@@H](c2ccc(O)c(O)c2)[C@@H]1C(=O)O` [EA, epiphyllic acid] the IC50 [4] was 415 ± 66 µM, the “maximal current block, ASIC1a” value ([4]; pH 7.4 to 5.5) was 100% and the IC50 [5] was 424 ± 33 µM. For the same compound, the “maximal current block, ASIC3” value ([5]; pH 7.4 to 5.5) was 100% and the “effectiveness in inhibiting ASIC3 relative to ASIC1a” value ([5]; ratio of ASIC1a and ASIC3 inhibition) was “acted equally on the ASIC1a and ASIC3 channels”.
In the case of `CC(=O)Oc1ccccc1C(=O)O` [aspirin], the IC50 [6] is given as 260 µM.
For `O=C(O)Cc1ccccc1Nc1c(Cl)cccc1Cl` [diclofenac], the IC50 [6] is listed as 92 µM.
For `CC(C(=O)O)c1ccc(-c2ccccc2)c(F)c1` (stereo not shown) [flurbiprofen], the IC50 [7] is listed as 350 µM.
In the case of `CC(C)Cc1ccc(C(C)C(=O)O)cc1` (stereo not shown) [ibuprofen], the IC50 [7] is listed as 350 µM.
In the case of `CC12CC3CC(C)(C1)CC(N)(C3)C2` [memantine], the “inhibition of ASIC1a” value [1] is listed as “inhibit ASIC1a in submillimolar concentrations”.
For `O=C(O)CC(OC(=O)C1=Cc2cc(O)c(O)cc2C(c2ccc(O)c(O)c2)C1C(=O)OC(CC(=O)O)C(=O)O)C(=O)O` (stereo not shown) [s590, 2,2′-((1-(3,4-dihydroxyphenyl)-6,7-dihydroxy-1,2-dihydronaphthalene-2,3-dicarbonyl)bis(oxy))disuccinic acid], the IC50 [4] was 297 ± 41 µM, the “maximal current block, ASIC1a” value ([4]; pH 7.4 to 5.5) was 100% and the IC50 [5] was 241 ± 25 µM. The “maximal current block, ASIC3” value ([5]; pH 7.4 to 5.5) was 100%.
In the case of `COC(=O)CC(C(=O)OC)C(OC(=O)C1=Cc2cc(O)c(O)cc2C(c2ccc(O)c(O)c2)C1C(=O)OC(C(=O)OC)C(CC(=O)OC)C(=O)OC)C(=O)OC` (stereo not shown) [s788, Hexamethyl1,1′-((1-(3,4-dihydroxyphenyl)-6,7-dihydroxy-1,2-dihydronaphthalene-2,3-dicarbonyl)bis(oxy))bis(propane-1,2,3-tricarboxylate)], the “activity on ASIC1a channel” value ([4]; pH 7.4 to 5.5) is reported as “did not demonstrate any activity” and the “activity on ASIC3 channel” value ([5]; pH 7.4 to 5.5) is reported as “did not demonstrate any activity”.

Source: paper PMC7466040, “Sevanol and Its Analogues: Chemical Synthesis, Biological Effects and Molecular Docking” (Pharmaceuticals, 2020)
